In patent US20250129113A1, “NEW GLYCOSIDE COMPOUND AND PREPARATION PROCESS THEREOF” (SunIn Biotech Co., Ltd., priority 2023, published 2025):

Key:
[1] = test system: IL-6 gene expression in THP1 cells differentiated into M1-type macrophages; test: Real-time PCR inflammatory gene expression assay, IL-6; format: cell-based, human; conditions: 16 μM; THP1 differentiation into M1-type macrophages (LPS, IFN-γ); 25 mM glucose
Method: (§1) Human acute monocytic leukemia, THP1 cells were cultured in Roswell Park Memorial Institute (RPMI) 1640 medium added with 10% fetal calf serum, and then the cells were put in a humidified incubator at 37° C., and with an air of 5% carbon dioxide and 95% oxygen.
(§2) THP1 cells were treated with 100 ng/ml of phorbol 12-myristate 13-acetate (PMA) for 24 hours to induce activation. The following day, the medium was replaced with RPMI 1640 (25 mM Glucose, 10% FBS) and incubated for another 24 hours. The cells were then differentiated into M1 phase macrophages by switching to RPMI 1640 medium containing LPS (10 pg/ml) and IFN-γ (20 ng/ml), and into M2 phase macrophages using RPMI 1640 medium containing IL-4 (20 ng/ml) and IL-13 (20 ng/ml). During the 48-hour differentiation process, the test drug Nusynside (16 μM) was added. After 24 hours of differentiation, mRNA from M1 and M2 phase macrophages was extracted using the PROTECH Kit, and reverse transcription of mRNA into cDNA was performed with the Protech MMLV Reverse Transcription Kit. Gene expression was subsequently observed. According to the POWERTRACK SYBR dye protocol, the cDNA was mixed, and gene expression was analyzed using the StepOnePlus Real-Time PCR Systems to examine inflammatory gene expression when THP1 cells were differentiated into M1 and M2 phase macrophages in the presence of Nusynside (16 μM).

[2] = test system: TNF-α gene expression in THP1 cells differentiated into M1-type macrophages; test: Real-time PCR inflammatory gene expression assay, TNF-α; format: cell-based, human; conditions: 16 μM; THP1 differentiation into M1-type macrophages (LPS, IFN-γ); 25 mM glucose
Method: as §1, §2

HaCaT cells = test: Cell proliferation assay (CCK-8), HaCaT cells; format: cell-based, human; conditions: 25 mM glucose, 48 hours, vs control group
Method: (§3) Human Foreskin Fibroblast, Hs68 cells and human keratinocytes, HaCaT cells were cultured in Dulbecco's Modified Eagle Medium (DMEM) added with glucose and 10% fetal calf serum, and then the cells were put in a humidified incubator with an air of 5% carbon dioxide and 95% oxygen. The medium was changed every two days. The subculture was performed, and then treated with 0.25% trypsin (TRYPSIN-EDTA) mixture. Finally, the cells were collected and diluted at a ratio of 1:5 for re-culture. The cells used in the efficacy test had passage numbers ranging from 12 to 40.
HaCaT cells at the number of 5×10^3 were cultured Culture in DMEM culture medium for 48 hours. The cell growth and survival status were analyzed with the CCK-8 reagent kit (DOJINDO MOLECULAR TECHNOLOGIES, KUMAMOTO, JAPAN). 10 μL CCK-8 solution was added to each cell culture and the cells were incubated at 37° C. for one hour, and then the cells were measured by the spectrophotometer MICROPLATE READER (THERMO LABSYSTEMS MULTISKAN RC) at 450 nm absorption, and the experimental results were analyzed by a comparison with the control group.

[3] = test system: full-skin wound in BKS.Cg-Dock7m+/+ Leprdb/Jnarl male mice; test: Diabetic mice wound healing study; format: in vivo; conditions: Nusynside 0.23 mg, Day 17 after continuous administration, compared to Blank group
Method: BKS.Cg-Dock7m+/+ Leprdb/Jnarl male mice, an established diabetes model, were obtained from the National Applied Research Laboratories, Taiwan. The experiment was conducted when the mice were 6 to 7 weeks old. A full-skin wound of the same size with a diameter of about 6 mm was made on the left and right sides of each mouse's back.
Total 14 mice were randomly divided into 4 groups based on body weight: (i) Nusynside test group (administrated with Nusynside 0.23 mg) (n=4); (ii) Positive Control group (administrated with cream containing Centella Asiatica and Plectranthus amboinicus extract) (n=4); (iii) Vehicle Control group (administrated with ointment base) (n=3); (vi) Blank group (n=3). The animals underwent bilateral incisions and were housed individually in separate cages after the incisions, in the IVC housing system of the general SPF breeding area. Daily external cage observations were conducted by the animal caretakers. On the day of the incision and during follow-up photography, the body weight of the animals, wound appearance, and wound area were measured and recorded, except that the wound had healed resulting in it disable to be measured, the measurements were taken twice a week.

Hs68 cells = test: Cell proliferation assay (CCK-8), Hs68 cells; format: cell-based, human; conditions: 25 mM glucose, 24 hours, vs control group
Method: as §3
The Hs68 cells were cultured in DMEM culture medium for 24 hours. The cell growth and survival status were analyzed with the CCK-8 reagent kit (DOJINDO MOLECULAR TECHNOLOGIES, KUMAMOTO, JAPAN). 10 μL CCK-8 solution to each cell culture was added and the cell culture was incubated at 37° C. for one hour, and then the cells were measured by the spectrophotometer MICROPLATE READER (THERMO LABSYSTEMS MULTISKAN RC) at 450 nm absorption, and the experimental results were analyzed by a comparison with the control group.

CC1OC(OC2C(O)C(OCCc3ccc(O)c(O)c3)OC(CO)C2OC(=O)CCc2ccc(O)c(O)c2)C(O)C(O)C1O (centres unmarked) [Nusynside]
expression of IL-6 gene [1]: significantly downregulated
expression of TNF-α gene [2]: significantly downregulated
promotion of cell proliferation of HaCaT cells (HaCaT cells; 3.2 μM): 12%
promotion of cell proliferation of HaCaT cells (HaCaT cells; 16 μM): 17%
promotion of cell proliferation of HaCaT cells (HaCaT cells; 32 μM): 14%
wound healing rate [3]: significantly increased the wound healing rate
promotion of cell proliferation of Hs68 cells (Hs68 cells; 16 μM): 9%
promotion of cell proliferation of Hs68 cells (Hs68 cells; 32 μM): 12%
